Experimental data as given in US11234914B2, “Monosubstituted urea derivatives as a self-tanning substance” (MERCK PATENT GMBH, priority 2016, dated 2022).

What was measured:
[1] = tested on: Normal Human Epidermal Keratinocytes (NHEK) and Normal Human Epidermal Melanocytes, lightly pigmented (NHEM-LP) co-culture; test: Synthesis of melanin in NHEK/NHEM-LP co-culture; type: cell-based; conditions: 240 hours (10 days) incubation, NHEK:NHEM-LP 2:1, OD 405 nm
Procedure: Evaluation of the Synthesis of Melanin in a Cell Culture Model Containing Two Cell Types (Co-Culture), Firstly Normal Human Epidermal KeratinoCytes (NHEK) and Secondly Normal Human Epidermal Melanocytes, Lightly Pigmented (NHEM-LP)
The two cell types NHEK and NHEM-LP (NHEK:NHEM-LP) are employed in a ratio of 2:1.
The culture medium consists of the media keratinocyte-SFM (2 parts by volume) and medium M254 (1 part by volume).
Keratinocyte-SFM contains 0.25 ng/ml of epidermal growth factor (EGF), 25 μg/ml of pituitary extract (PE) and 25 μg/ml of gentamycin and was purchased from Thermo Fisher Scientific.
M254 contains PMA-free HMGS-2, 5 μg/ml of insulin, 50 U/ml of penicillin, 50 μg/ml of streptomycin and 25 μg/ml of gentamycin and was purchased from Thermo Fisher Scientific.
NHEK and NHEM-LP were incubated in the culture medium in microtitre plates (24-well plates) for 24 hours (37° C., 5% CO2). The culture medium was removed and replaced by an assay medium which contained the culture medium and compounds Ia, Ib and Ic to be tested or alternatively no test substance, the reference L-tyrosine (1 mM), 200 μM of IBMX or the solvent control 0.1% of THF, 0.15% of THF. Compounds Ia, Ib and Ic are added as solution (0.15% in THF). After replacement of the assay medium, the cells were incubated again for 240 hours (10 days). On days 3 and 7, assay medium was again added. All experimental investigations were carried out using a triple determination. After the end of the incubation, the melanin was extracted by cell lysis with 0.5 N NaOH. The optical density (OD) of each sample was measured at 405 nm. The melanin quantity was calculated from melanin standards (standard curve 0.39 to 100 μg/ml of melanin).

[2] = tested on: 3D melanized reconstructed human epidermis (RHEs-MEL); test: Tanning properties in vitro on reconstructed epidermis; type: cell-based; conditions: compound at 25 μM and 12.5 M
Procedure: Evaluation of the Tanning Properties In Vitro on Reconstructed Epidermis
In this study, the tanning properties of compound Ic are investigated in vitro on 3D melanized reconstructed human epidermis (RHEs-MEL). The compound IBMX (3-isobutyl-1-methylxanthine) 100 μM is employed as positive control. Compound Ic is employed 25 μM and […]. Untreated reconstructed skin is used as negative control. The in vitro skin is treated systemically with the compounds to be investigated in a culture medium for 10 days and then analysed.

| Compound | stimulation of melanin synthesis ([1]; tested at 45 μM) [%] | stimulation of melanin synthesis ([1]; tested at 20 μM) [%] | stimulation of melanin synthesis ([1]; tested at 30 μM) [%] | ITA value (individual typology angle) ([2]; 10 days, both concentrations) | amount of melanin ([2]; 10 days, both concentrations) | tanning properties compared with positive control IBMX 100 μM ([2]; systemic treatment in culture medium for 10 days, evident for both concentrations) |
| --- | --- | --- | --- | --- | --- | --- |
| NC(=O)NCc1ccccc1 [Compound Ia, Benzylurea] | 17 | – | – | – | – | – |
| COc1ccc(CNC(N)=O)cc1 [Compound Ib, (4-methoxybenzyl)urea] | 18 | – | – | – | – | – |
| NC(=O)NCc1ccc2c(c1)OCO2 [Compound Ic, benzo[1,3]dioxol-5ylmethylurea] | – | 23 | 44 | reduction | increased | comparably good properties as IBMX at 100 μM |
